# Columns and labels:
# [1] = Compound cytotoxicity, XTT-based colorimetric assay; format: cell-based; conditions: human; uninfected MT2 cells, day 4, XTT
# Method in brief: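 Run under the antiviral-assay protocol but without virus. Viability was read on day 4 and CC50 values were derived from the readout.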
# [2] = test system: recombinant NL4-3 virus (Renilla luciferase) in MT-2 cells; test: HIV cell culture assay (antiviral activity, luciferase readout); format: cell-based; conditions: Renilla, NL43
# Method in brief: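 Antiviral EC50 was derived via the median effect equation from luciferase signal. The signal came from MT-2 cultures infected for 4–5 days with a nef-deleted, Renilla luciferase-expressing NL4-3 reporter virus (made in 293T cells) in the presence of compound dilutions.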
SMILES,CC50 at 4 days [1] [nM],EC50 [2] [nM]
"CS(=O)(=O)Nc1nn(CC(F)F)c2c(-n3c([C@H](Cc4cc(F)cc(F)c4)NC(=O)Cn4nc(C(F)F)c5c4C(F)(F)[C@@H]4C[C@H]54)nc4cc(-c5cccnn5)ccc4c3=O)ccc(Cl)c12 (atropisomer, axis not shown) [Example 135, N-[(1S)-1-{3-[4-chloro-1-(2,2-difluoroethyl)-3-methanesulfonamido-1H-indazol-7-yl]-4-oxo-7-(pyridazin-3-yl)-3,4-dihydroquinazolin-2-yl}-2-(3,5-difluorophenyl)ethyl]-2-[(2S,4R)-9-(difluoromethyl)-5,5-difluoro-7,8-diazatricyclo[4.3.0.0^2,^4]nona-1(6),8-dien-7-yl]acetamide]",> 500,0.054
"Cn1nc(NS(C)(=O)=O)c2c(Cl)ccc(-n3c([C@H](Cc4cc(F)cc(F)c4)NC(=O)Cn4nc(C(F)F)c5c4C(F)(F)[C@@H]4C[C@H]54)nc4cc(-c5cccc(C(C)(C)C)n5)ccc4c3=O)c21 (atropisomer, axis not shown; (P)) [Example 35, N—((S)-1-(7-(6-(tert-butyl)pyridin-2-yl)-(3P)-3-(4-chloro-1-methyl-3-(methylsulfonamido)-1H-indazol-7-yl)-4-oxo-3,4-dihydroquinazolin-2-yl)-2-(3,5-difluorophenyl)ethyl)-2-((3bS,4aR)-3-(difluoromethyl)-5,5-difluoro-3b,4,4a,5-tetrahydro-1H-cyclopropa[3,4]cyclopenta[1,2-c]pyrazol-1-yl)acetamide]",> 500,0.97
"Cn1nc(NS(C)(=O)=O)c2c(Cl)ccc(-n3c([C@H](Cc4cc(F)cc(F)c4)NC(=O)Cn4nc(C(F)F)c5c4C(F)(F)[C@@H]4C[C@H]54)nc4cc(-c5cccc(C(F)(F)F)n5)ccc4c3=O)c21 (atropisomer, axis not shown; (P)) [Example 59, N—((S)-1-((3P)-3-(4-chloro-1-methyl-3-(methylsulfonamido)-1H-indazol-7-yl)-4-oxo-7-(6-(trifluoromethyl)pyridin-2-yl)-3,4-dihydroquinazolin-2-yl)-2-(3,5-difluorophenyl)ethyl)-2-((3bS,4aR)-3-(difluoromethyl)-5,5-difluoro-3b,4,4a,5-tetrahydro-1H-cyclopropa[3,4]cyclopenta[1,2-c]pyrazol-1-yl)acetamide]",> 500,0.12
"CCc1cc(CC)nc(-c2ccc3c(=O)n(-c4ccc(Cl)c5c(NS(C)(=O)=O)nn(C)c45)c([C@H](Cc4cc(F)cc(F)c4)NC(=O)Cn4nc(C(F)F)c5c4C(F)(F)[C@@H]4C[C@H]54)nc3c2)n1 (atropisomer, axis not shown; (P)) [Example 38, N—((S)-1-((3P)-3-(4-chloro-1-methyl-3-(methylsulfonamido)-1H-indazol-7-yl)-7-(4,6-diethylpyrimidin-2-yl)-4-oxo-3,4-dihydroquinazolin-2-yl)-2-(3,5-difluorophenyl)ethyl)-2-((3bS,4aR)-3-(difluoromethyl)-5,5-difluoro-3b,4,4a,5-tetrahydro-1H-cyclopropa[3,4]cyclopenta[1,2-c]pyrazol-1-yl)acetamide]",> 500,0.21
"Cn1nc(NS(C)(=O)=O)c2c(Cl)ccc(-n3c([C@H](Cc4cc(F)cc(F)c4)NC(=O)Cn4nc(C(F)F)c5c4C(F)(F)[C@@H]4C[C@H]54)nc4cc(-c5cc(C(F)(F)F)cc(C(F)(F)F)n5)ccc4c3=O)c21 (atropisomer, axis not shown; (P)) [Example 58, N—((S)-1-(7-(4,6-bis(trifluoromethyl)pyridin-2-yl)-(3P)-3-(4-chloro-1-methyl-3-(methylsulfonamido)-1H-indazol-7-yl)-4-oxo-3,4-dihydroquinazolin-2-yl)-2-(3,5-difluorophenyl)ethyl)-2-((3bS,4aR)-3-(difluoromethyl)-5,5-difluoro-3b,4,4a,5-tetrahydro-1H-cyclopropa[3,4]cyclopenta[1,2-c]pyrazol-1-yl)acetamide]",> 500,0.95
"Cc1nc(C)c(C)c(-c2ccc3c(=O)n(-c4ccc(Cl)c5c(NS(C)(=O)=O)nn(CC(F)(F)F)c45)c([C@H](Cc4cc(F)cc(F)c4)NC(=O)Cn4nc(C(F)F)c5c4C(F)(F)[C@@H]4C[C@H]54)nc3c2)n1 (atropisomer, axis not shown) [Example 109, N-[(1S)-1-{3-[4-chloro-3-methanesulfonamido-1-(2,2,2-trifluoroethyl)-1H-indazol-7-yl]-4-oxo-7-(2,5,6-trimethylpyrimidin-4-yl)-3,4-dihydroquinazolin-2-yl}-2-(3,5-difluorophenyl)ethyl]-2-[(2S,4R)-9-(difluoromethyl)-5,5-difluoro-7,8-diazatricyclo[4.3.0.0^2,^4]nona-1(6),8-dien-7-yl]acetamide]",> 500,0.11
"CC(C)(C)S(=O)(=O)c1ccccc1-c1ccc2c(=O)n(-c3ccc(Cl)c4c(NS(=O)(=O)C5CC5)nn(CC(F)F)c34)c([C@H](Cc3cc(F)cc(F)c3)NC(=O)Cn3nc(C(F)F)c4c3C(F)(F)[C@@H]3C[C@H]43)nc2c1 (atropisomer, axis not shown) [Example 143]",> 500,0.28
"CN(c1cccc(-c2ccc3c(=O)n(-c4ccc(Cl)c5c(NS(C)(=O)=O)nn(C)c45)c([C@H](Cc4cc(F)cc(F)c4)NC(=O)Cn4nc(C(F)F)c5c4C(F)(F)[C@@H]4C[C@H]54)nc3c2)c1)S(C)(=O)=O [Example 28, N—((S)-1-((3P)-3-(4-chloro-1-methyl-3-(methylsulfonamido)-1H-indazol-7-yl)-7-(3-(N-methylmethylsulfonamido)phenyl)-4-oxo-3,4-dihydroquinazolin-2-yl)-2-(3,5-difluorophenyl)ethyl)-2-((3bS,4aR)-3-(difluoromethyl)-5,5-difluoro-3b,4,4a,5-tetrahydro-1H-cyclopropa[3,4]cyclopenta[1,2-c]pyrazol-1-yl)acetamide]",> 500,0.22
"CS(=O)(=O)Nc1nn(CC(F)(F)F)c2c(-n3c([C@H](Cc4cc(F)cc(F)c4)NC(=O)Cn4nc(C(F)F)c5c4C(F)(F)[C@@H]4C[C@H]54)nc4cc(-c5ncccc5S(C)(=O)=O)ccc4c3=O)ccc(Cl)c12 (atropisomer, axis not shown) [Example 112]",> 500,0.075
"Cc1ccc(F)c(-c2ccc3c(=O)n(-c4ccc(Cl)c5c(NS(C)(=O)=O)nn(C)c45)c([C@H](Cc4cc(F)cc(F)c4)NC(=O)Cn4nc(C(F)F)c5c4C(F)(F)[C@@H]4C[C@H]54)nc3c2)n1 (atropisomer, axis not shown; (P)) [Example 22, N—((S)-1-((3P)-3-(4-chloro-1-methyl-3-(methylsulfonamido)-1H-indazol-7-yl)-7-(3-fluoro-6-methylpyridin-2-yl)-4-oxo-3,4-dihydroquinazolin-2-yl)-2-(3,5-difluorophenyl)ethyl)-2-((3bS,4aR)-3-(difluoromethyl)-5,5-difluoro-3b,4,4a,5-tetrahydro-1H-cyclopropa[3,4]cyclopenta[1,2-c]pyrazol-1-yl)acetamide]",> 500,0.11
"CCc1cc(C)nc(-c2ccc3c(=O)n(-c4ccc(Cl)c5c(NS(C)(=O)=O)nn(CC(F)F)c45)c([C@H](Cc4cc(F)cc(F)c4)NC(=O)Cn4nc(C(F)F)c5c4C(F)(F)[C@@H]4C[C@H]54)nc3c2)n1 (atropisomer, axis not shown) [Example 126, N-[(1S)-1-{3-[4-chloro-1-(2,2-difluoroethyl)-3-methanesulfonamido-1H-indazol-7-yl]-7-(4-ethy1-6-methylpyrimidin-2-y1)-4-oxo-3,4-dihydroquinazolin-2-yl}-2-(3,5-difluorophenyl)ethyl]-2-[(2S,4R)-9-(difluoromethyl)-5,5-difluoro-7,8-diazatricyclo[4.3.0.0^2,^4]nona-1(6),8-dien-7-yl]acetamide]",> 500,0.12
"Cc1ccnnc1-c1ccc2c(=O)n(-c3ccc(Cl)c4c(NS(C)(=O)=O)nn(C)c34)c([C@H](Cc3cc(F)cc(F)c3)NC(=O)Cn3nc(C(F)F)c4c3C(F)(F)[C@@H]3C[C@H]43)nc2c1 (atropisomer, axis not shown; (P)) [Example 51, N—((S)-1-((3P)-3-(4-chloro-1-methyl-3-(methylsulfonamido)-1H-indazol-7-yl)-7-(4-methylpyridazin-3-yl)-4-oxo-3,4-dihydroquinazolin-2-yl)-2-(3,5-difluorophenyl)ethyl)-2-((3bS,4aR)-3-(difluoromethyl)-5,5-difluoro-3b,4,4a,5-tetrahydro-1H-cyclopropa[3,4]cyclopenta[1,2-c]pyrazol-1-yl)acetamide]",> 500,0.14
"Cn1nc(NS(C)(=O)=O)c2c(Cl)ccc(-n3c([C@H](Cc4cc(F)cc(F)c4)NC(=O)Cn4nc(C(F)F)c5c4C(F)(F)[C@@H]4C[C@H]54)nc4cc(-c5cccc(C(F)F)c5)ccc4c3=O)c21 (atropisomer, axis not shown) [Example 120]",> 500,0.38
"Cc1cc(-c2ccc3c(=O)n(-c4ccc(Cl)c5c(NS(C)(=O)=O)nn(CC(F)(F)F)c45)c([C@H](Cc4cc(F)cc(F)c4)NC(=O)Cn4nc(C(F)F)c5c4C(F)(F)[C@@H]4C[C@H]54)nc3c2)nc(C)n1 (atropisomer, axis not shown) [Example 103, N-[(1S)-1-{3-[4-chloro-3-methanesulfonamido-1-(2,2,2-trifluoroethyl)-1H-indazol-7-yl]-7-(2,6-dimethylpyrimidin-4-yl)-4-oxo-3,4-dihydroquinazolin-2-yl}-2-(3,5-difluorophenyl)ethyl]-2-[(2S,4R)-9-(difluoromethyl)-5,5-difluoro-7,8-diazatricyclo[4.3.0.0^2,^4]nona-1(6),8-dien-7-yl]acetamide]",> 500,0.059
